Data as given in patent US20210330736A1 (UNIVERSITEIT VAN AMSTERDAM, priority 2018, published 2021).

Experiments:
[1] = tested on: Ser40 phosphorylation of Th in HEK cells transfected with Th; assay: Th Ser40 phosphorylation in HEK cells transfected with Th (western blot); assay type: cell-based; settings: HEK-293 transfected with Th, low concentrations (1 μM)
Description: FIG. 3. HEK cells are a suitable model to study GUCY2C-induced Ser40 phosphorylation. (A) RT-qPCR data from intact HEK extracts. Input material was 10 ng of total RNA. Cp corresponds to the cycle number in which the expression starts to be considered positive. (−) represents the water control, which is negative in every case. (B) HEK cultures were transfected with Th and treated with a cGMP analogue 48 hours post-plating. Changes in Ser40 phosphorylation were studied. The graph represents the statistical analysis (n=6; Mean±SEM). Unpaired Student's t-test (p-value: ****<0.0001). Hereon, ‘Fold Change’ corresponds to the ratio P-Ser40/Total Th.
(§1) FIG. 7. PDE2a is an important effector regulating Ser40 phosphorylation in MN9D cells. BAY-60-7550 dose-curve and representative examples in MN9D (n=9, red) and HEK cells (n=4, blue) (Mean±SEM). Cells were treated with various concentrations of BAY 60-7750 and analyzed for Th phosphorylation on Ser40 , total Th and actin.
HEK cells were maintained in 100-mm Petri dishes and grown in DMEM medium supplemented with L-glutamine, penicillin-streptomycin (Pen&Strep) and 10% heat-inactivated fetal bovine serum (HIFBS). Growing conditions were 37° C. and 5% CO2. For every-other-day passages, HEK cultures were split at a 1:3 dilution. From Friday to Monday, the split proportion was doubled for all cell lines. For passaging, cultures were rinsed with PBS and incubated with 1 mL of trypsin during 5 minutes. Cells were resuspended in growth medium and finally split to the proper dilution. The experiments were performed in 12-well plates. For immunocytochemistry analysis, sterile 18-mm coverslips were added prior to the plating. 500 !μL of cell resuspension was seeded in each well. If experiments were to be performed 48 hours after the plate preparation, 1:5 was the seeding ratio for HEK cells. When the experiments took place 96 hours post-plating, 1:7 was the working dilution for HEK cells. Unless otherwise stated, HEK cultures were processed 96 hours post-plating.
HEK cells were transfected using the calcium-phosphate method. […]

[2] = tested on: Ser40 phosphorylation of Th in MN9D cells; assay: Th Ser40 phosphorylation in MN9D cells (western blot, P-Ser40/total Th); assay type: cell-based
Description: FIG. 6. PDE2a is an important effector regulating Ser40 phosphorylation in MN9D cells. MN9D cultures were treated with IBMX or BAY-60-7550 (50 μM), a PDE2A-selective inhibitor. Cells were analyzed on western-blot for phosphorylation of Ser40 , total Th, and actin.
as §1
FIG. 10. PDE11 is an important effector regulating Ser40 phosphorylation in MN9D cells. BC 11-38 dose-curve and representative examples in MN9D (n=2) (Mean±SEM). IBMX served as a control and was used at 100 μM. Cell were analyzed for phosphorylation of Th on Ser40 and total Th was used as a loading control to determine phosphorylation specific effects.
24 hours prior to the administration of the different compounds, cells were serum-starved with DMEM medium supplemented with L-glutamine and Pen&Strep. Unless otherwise stated, the concentration of the different reagents is reported in Table 1 and the duration of the treatment was 1 hour.
Cells were harvested in 150 μL of Laemmli sample buffer (2% SDS, 10% glycerol, 60 mM Tris-Cl pH 6.8, 0.01% bromophenol blue, 50 mM freshly added DTT). Wells were duplicated in pairs and pooled into the same tubes to minimize variability. Samples were sonicated at maximum potency during 3 minutes, heated at 95° C. for 5 minutes and spun down briefly before loading. Running gels were 10% polyacrylamide except for the GUCY2C detection, which was optimal in 7% gels (375 mM Tris-Cl pH 8.8, 0.1% APS, 0.1% SDS, 0.04% TEMED). Stacking gels were 5% polyacrylamide (125 mM Tris-Cl pH 6.8, 0.1% APS, 0.1% SDS, 0.04% TEMED).
Up to 35 μL of sample was loaded in each slot and run in the presence of tris-glycine buffer and 0.1% SDS. Running conditions were 100 V during the first 20 minutes, followed by 160 V until the migration front reached the bottom of the gel. The transference was performed at 100 V onto 0.2 μm nitrocellulose membranes, in the presence of tris-glycine buffer and 20% methanol. The blotting duration was 140 minutes except for the detection of GUCY2C, which was transferred during 240 minutes in the presence of 0.1% SDS. Membranes were then submerged in Ponceau S solution to check blotting efficiency (0.1% Ponceau S, 5% acetic acid). After several washings with DEMI water, blots were incubated during 1 hour in the presence of 5% milk powder and TBS-T (154 mM NaCl, 49.5 mM Tris-Cl pH 7.4, 0.1% Tween-20). The incubation with the primary antibodies was performed O/N at 4° C. in TBS-T (consult Table 2 for dilution and species). Membranes were rinsed in TBS-T during 1 hour to remove the excess antibody. The incubation with the secondary antibodies took place during 60 minutes at room temperature (1:10,000 dilution in TBS-T, with the exception of the goat secondary which was diluted 1:20,000). Secondary antibodies were fused to the horseradish peroxidase and raised against the host species of the primary antibody. After additional washings during 1 hour, blots were exposed to an enhanced chemiluminescence solution and the signal was detected using an Odyssey imager (LI-COR). Band densitometry was performed with LI-COR Image Studio Lite. For graph quantifications, ‘Fold Change’ represents the ratio P-Ser40/Total Th. Statistical comparisons between pair of groups correspond to unpaired Student's t-tests, as calculated with GraphPad Prism. Asterisks denote the following p-values: *<0.05, **<0.01, ***<0.001, ****<0.0001.
IBMX is a non-selective PDE inhibitor, therefore we investigated the effect of inhibiting a specific PDE selectively on Ser40 phosphorylation. To study the effect of PDE2A inhibition on Ser40 phosphorylation we treated the dopaminergic cell-line MN9D with Bay BAY-60-7550 and analyzed the effects. […]

IC50 ([2]; n=9, read-out: IC50 in the dopaminergic model (dose-curve of Th Ser40 phosphorylation)): 1000 nM
SMILES: COc1ccc(Cc2nn3c([C@@H](CCCc4ccccc4)[C@@H](C)O)nc(C)c3c(=O)[nH]2)cc1OC [BAY 60-7550]
effect on Ser40 phosphorylation in HEK cells [1]: hardly exhibit any effect | effect on Ser40 phosphorylation in HEK cells ([1]; listed as BAY 60-7750): almost no effect | increase in the phosphorylation of Ser40 ([2]; 50 μM): more than 4 fold | performance versus IBMX on Ser40 phosphorylation ([2]; IBMX 100 μM as control): performed better than IBMX | phosphorylation of Th on Ser40 as compared to total Th (in words) ([2]; dose-curve): clear fold change increase in Ser40 phosphorylation
